As usually defined, the IC50 is the point on the concentration scale where inhibition reaches its midpoint. Read a low IC50 as inhibition by little substance.

IC50 data for 13 molecules are collected here from ChEMBL document CHEMBL4052803, “Synthesis and anti-tumor evaluation of panaxadiol halogen-derivatives” (Bioorg Med Chem Lett, 2017).

One assay concerns SW480. Nature of the assay: Antiproliferative activity against human SW480 cells after 48 hrs by MTT assay. Format: functional, cell-based. The note with it: SW480, 48 h.
For another assay, the system named is HCT-116. The experiment in a line: Antiproliferative activity against human HCT116 cells after 48 hrs by MTT assay. Format: functional, cell-based. The note with it: HCT-116, 48 h. A general note: Tetrazolium dyes change colour on reduction, which living cells bring about.
A further assay concerns BGC-823. Nature of the assay: Antiproliferative activity against human BGC823 cells after 48 hrs by MTT assay. Format: functional, cell-based. The note with it: BGC-823, 48 h.
The test system of the next assay is GES1. Nature of the assay: Antiproliferative activity against human GES-1 cells after 48 hrs by MTT assay. Format: cell-based. The note with it: GES1, 48 h.
Assay [1] can be described thus: Antiproliferative activity against HHDPC cells after 48 hrs by MTT assay. Format: cell-based. The note with it: Homo sapiens.
For a further assay, the system named is H9c2. The experiment in a line: Antiproliferative activity against rat H9c2 cells after 48 hrs by MTT assay. Format: cell-based. The note with it: H9c2, 48 h.

With `C/C(=C\CCC(C)(C)O)[C@H]1CC[C@]2(C)[C@@H]1[C@H](OC(=O)CCl)C[C@@H]1[C@@]3(C)CC[C@H](OC(=O)CCl)C(C)(C)[C@@H]3CC[C@]12C`, the IC50 was determined as 5.49 µM in the assay with SW480; 8.33 µM with HCT-116; 4.28 µM in the assay on BGC-823; 110 µM in the assay on GES1; 61.9 µM in assay [1]; 86.2 µM with H9c2.
Turning to `C/C(=C\CCC(C)(C)O)[C@H]1CC[C@]2(C)[C@@H]1[C@H](OC(=O)CBr)C[C@@H]1[C@@]3(C)CC[C@H](OC(=O)CBr)C(C)(C)[C@@H]3CC[C@]12C`, the IC50 with SW480 stood at 1.22 µM; in the assay on HCT-116, 50.9 µM; with BGC-823 it was 1.08 µM; in the assay with GES1, 35.1 µM; in assay [1] it was 42.1 µM; with H9c2, 36.6 µM.
Turning to `CC1(C)CCC[C@](C)([C@H]2CC[C@]3(C)[C@@H]2[C@H](OC(=O)CCl)C[C@@H]2[C@@]4(C)CC[C@H](OC(=O)CCl)C(C)(C)[C@@H]4CC[C@]23C)O1`, the IC50 was more than 100 µM in the assay on SW480; more than 100 µM with HCT-116; more than 100 µM with BGC-823; 180 µM with GES1; 226 µM in assay [1]; more than 500 µM in the assay with H9c2.
Consider `CC(C)=CC/C=C(\C)[C@H]1CC[C@]2(C)C1=CC[C@@H]1[C@@]3(C)CC[C@H](OC(=O)CBr)C(C)(C)[C@@H]3CC[C@]12C`, for which the IC50 worked out at 39.4 µM in the assay with SW480; 3.59 µM in the assay on HCT-116; 77.6 µM in the assay with GES1; 90.6 µM in assay [1]; 131 µM in the assay with H9c2.
Regarding `C/C(=C\CCC(C)(C)OC(=O)CBr)[C@H]1CC[C@]2(C)C1=CC[C@@H]1[C@@]3(C)CC[C@H](OC(=O)CBr)C(C)(C)[C@@H]3CC[C@]12C`, the IC50 with SW480 was found to be 31.4 µM; with HCT-116, 7.14 µM; in the assay on BGC-823 it was 82.1 µM; with GES1, 142 µM; in assay [1], 200 µM; in the assay with H9c2, 161 µM.
In the case of `CC(C)=CC/C=C(\C)[C@H]1CC[C@]2(C)[C@@H]1[C@H](Br)C[C@@H]1[C@@]3(C)CC[C@H](OC(=O)CBr)C(C)(C)[C@@H]3CC[C@]12C`, the IC50 amounted to 18 µM in the assay with SW480; 58.1 µM in the assay on HCT-116; 95 µM in the assay on BGC-823; 121 µM with GES1; 157 µM in assay [1]; 250 µM in the assay on H9c2.
Turning to `CC(C)(CCC[C@@]1(C)O[C@@H]2C[C@@H]3[C@@]4(C)CC[C@H](OC(=O)CCl)C(C)(C)[C@@H]4CC[C@@]3(C)[C@]3(C)CC[C@H]1[C@@H]23)OC(=O)CCl`, the IC50 with SW480 was 30.4 µM; in the assay with HCT-116 it was 42.3 µM; in the assay with BGC-823, more than 100 µM; in the assay on GES1, 125 µM; in assay [1], 100 µM; in the assay on H9c2, 281 µM.
Regarding `CC1(C)CCC[C@@](C)([C@H]2CC[C@]3(C)[C@@H]2[C@H](O)C[C@@H]2[C@@]4(C)CC[C@H](O)C(C)(C)[C@@H]4CC[C@]23C)O1`, the IC50 is 73.4 µM in the assay with SW480; more than 100 µM in the assay with HCT-116; 80.1 µM in the assay on BGC-823; 116 µM in the assay with GES1; 141 µM in assay [1]; 214 µM with H9c2.
Regarding `CC(C)=CC/C=C(\C)[C@H]1CC[C@]2(C)[C@@H]1[C@H](OC(=O)CCl)C[C@@H]1[C@@]3(C)CC[C@H](OC(=O)CCl)C(C)(C)[C@@H]3CC[C@]12C`, the IC50 is 13.7 µM in the assay with SW480; 12.6 µM in the assay with HCT-116; more than 100 µM in the assay on BGC-823; 100 µM in the assay with GES1; 89.5 µM in assay [1]; 180 µM in the assay with H9c2.
On to `CC1(C)CCC[C@](C)([C@H]2CC[C@]3(C)[C@@H]2[C@H](OC(=O)CBr)C[C@@H]2[C@@]4(C)CC[C@H](OC(=O)CBr)C(C)(C)[C@@H]4CC[C@]23C)O1`, for which the IC50 in the assay on SW480 turned out to be 15.2 µM; with HCT-116, 3.86 µM; in the assay with BGC-823, 15.6 µM; in the assay on GES1 it was 99.4 µM; in assay [1], 140 µM; with H9c2, 158 µM.
As to `CC1(C)CCC[C@@](C)([C@H]2CC[C@]3(C)[C@@H]2[C@H](O)C[C@@H]2[C@@]4(C)CC[C@H](OC(=O)CCl)C(C)(C)[C@@H]4CC[C@]23C)O1`, the IC50 in the assay on SW480 amounted to 15.8 µM; with HCT-116, 42.3 µM; with BGC-823 it was 17.1 µM; in the assay on GES1, 107 µM; in assay [1], 120 µM; with H9c2, 121 µM.
For `CC1(C)CCC[C@@](C)([C@H]2CC[C@]3(C)[C@@H]2[C@H](O)C[C@@H]2[C@@]4(C)CC[C@H](OC(=O)CBr)C(C)(C)[C@@H]4CC[C@]23C)O1`, the IC50 stood at 14.2 µM in the assay with SW480; 14.7 µM in the assay on BGC-823; 115 µM in the assay with GES1; 118 µM in assay [1]; 120 µM in the assay on H9c2.
With `C/C(=C\CCC(C)(C)O)[C@H]1CC[C@]2(C)[C@@H]1[C@H](OC(=O)CBr)C[C@@H]1[C@@]3(C)CC[C@H](O)C(C)(C)[C@@H]3CC[C@]12C`, the IC50 in the assay with SW480 amounted to 0.118 µM; in the assay on HCT-116, 5.34 µM; in the assay with BGC-823, 0.622 µM; with GES1, 26.1 µM; in assay [1], 36.4 µM; in the assay with H9c2, 48.8 µM.
